In ChEMBL document CHEMBL2057178, “Novel synthetic route to the C-nucleoside, 2-deoxy benzamide riboside” (Bioorg Med Chem Lett, 2012):
Activity calls are given as the source filed them. No cut-off for these calls is given here.

Tests used:
Assay type in all cases: functional, cell-based
PC-3 [1] = assay: Growth inhibition of human PC3 cells at 500 uM
MCF7 [2] = assay: Growth inhibition of human MCF7 cells at 50 uM
RKO = assay: Growth inhibition of human RKO cells up to 1 mM relative to DMSO-treated control
T47D = assay: Growth inhibition of human T47D cells up to 1 mM relative to DMSO-treated control
DU-145 = assay: Growth inhibition of human DU145 cells up to 1 mM relative to DMSO-treated control
NCI-H460 = assay: Growth inhibition of human H460 cells up to 1 mM relative to DMSO-treated control
HCT-116 = assay: Growth inhibition of human HCT116 cells up to 1 mM relative to DMSO-treated control
MCF7 [3] = assay: Growth inhibition of human MCF7 cells up to 1 mM relative to DMSO-treated control
PC-3 [4] = assay: Growth inhibition of human PC3 cells up to 1 mM relative to DMSO-treated control
HT-29 = assay: Growth inhibition of human HT-29 cells up to 1 mM relative to DMSO-treated control

NC(=O)c1csc([C@@H]2O[C@H](CO)[C@@H](O)[C@H]2O)n1
growth inhibition (GI) (PC-3 [1]): Active

NC(=O)c1cccc([C@@H]2O[C@H](CO)[C@@H](O)[C@H]2O)c1
growth inhibition (GI) (MCF7 [2]): Active

NC(=O)c1cccc([C@H]2C[C@H](O)[C@@H](CO)O2)c1 (racemic)
growth inhibition (GI) (RKO): inactive | growth inhibition (GI) (T47D): inactive | growth inhibition (GI) (DU-145): inactive | growth inhibition (GI) (NCI-H460): inactive | growth inhibition (GI) (HCT-116): inactive | growth inhibition (GI) (MCF7 [3]): inactive | growth inhibition (GI) (PC-3 [4]): inactive | growth inhibition (GI) (HT-29): inactive
